IC50 data for 14 compounds are collected here from patent US20190322676A1, “CERAMIDE GALACTOSYLTRANSFERASE INHIBITORS FOR THE TREATMENT OF DISEASE” (BioMarin Pharmaceutical Inc., priority 2016, published 2019).

Where a name gives a salt, the structure may show the parent alone. Where only a bound is given, the exact number is not on record here.

In this assay the target is T1, human CGT (ceramide galactosyltransferase), CHO/CGT lysate (Homo sapiens, UniProt Q16880).
T1 construct: Full-length human CGT cDNA was cloned into the BamH1/Xho1 site of pcDNA3.1 (+); expressed in transfected cells; host or cells: Chinese hamster ovary (CHO) cells; lysate prepared with M-PER
T1 sequence (Q16880 21-541): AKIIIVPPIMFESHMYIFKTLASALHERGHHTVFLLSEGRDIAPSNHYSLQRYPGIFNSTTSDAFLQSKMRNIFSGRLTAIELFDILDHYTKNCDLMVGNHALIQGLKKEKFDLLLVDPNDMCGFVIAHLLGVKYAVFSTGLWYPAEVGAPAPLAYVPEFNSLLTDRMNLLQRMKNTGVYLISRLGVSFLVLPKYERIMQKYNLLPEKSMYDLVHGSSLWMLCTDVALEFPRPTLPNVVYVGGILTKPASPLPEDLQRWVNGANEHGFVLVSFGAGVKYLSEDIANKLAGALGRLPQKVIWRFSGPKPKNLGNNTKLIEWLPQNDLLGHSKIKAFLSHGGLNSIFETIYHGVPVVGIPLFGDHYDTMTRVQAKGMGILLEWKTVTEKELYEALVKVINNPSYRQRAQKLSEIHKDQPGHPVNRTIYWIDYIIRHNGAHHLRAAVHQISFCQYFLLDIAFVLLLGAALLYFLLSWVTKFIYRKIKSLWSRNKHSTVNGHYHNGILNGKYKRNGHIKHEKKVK
Description: CGT enzyme assay, RapidFire/MS/MS readout with 0.01% Tween added (Table 1 ranges with two asterisks **). The assay is classed as biochemical. The note with it: CGT enzymatic assay; range with two asterisks (**): RapidFire/MS/MS method with 0.01% Tween added. On the procedure: Full-length human CGT cDNA was cloned into the BamH1/Xho1 site of pcDNA3.1 (+) mammalian expression vector (V90-20, Invitrogen, Carlsbad, Calif.) and the plasmid was transfected into Chinese hamster ovary (CHO) cells. Lysate was prepared using M-PER (Mammalian Protein Extraction Reagent, ThermoFisher Scientific, Grand Island, N.Y.) in the presence of a protease inhibitor cocktail (P8340, Sigma, Saint Louis, Mo.). Each 100 mm dish (100% confluent, approximately 1×10^7 cells) was lysed with 250 μL of M-PER containing protease inhibitors. Protein concentration was determined using a Pierce BCA protein assay kit (ThermoFisher Scientific). Four micrograms of CHO/CGT lysate was incubated with various concentrations of a compound (0.001 μM-50 μM) in 10 mM HEPES (pH 7.2) containing 35 μM dioleoylphosphatidylcholine, 5 mM MgCl2, 5 mM MnCl2, 1% BSA, 15 mM KCl, 1 mM EGTA, 8 mM CHAPS, 10 μM C6-NBD-dihydro-ceramide and 17.5 μM UDP-galactose in a final reaction volume of 20 μL at 37° C. for 1 hour. The final concentration of DMSO was 0.5% in both compound-treated and mock-treated samples. Tween 80 (0.01%) was optionally added to the reaction mixture to help solubilize the compounds. Each individual reaction was diluted with 80 μL of methanol:acetronitrile (1:3) containing 5 μM N-docdecanoyl-NBD-galactosylceramide (internal standard) to stop the reaction. 200 μL H2O:acetonitile (1:1) was added to precipitate the protein. After sufficient mixing, the plates were centrifuged at 2469 g for 38 minutes, 200 μL of supernatant was transferred to a LC/MS 96-deep well plate and a second spin was performed at 2469 g for 10 minutes. The final supernatant was injected in triplicate for RapidFire/MS/MS analysis.
Quantitative Analysis Using the RapidFire/MS/MS Method:
The quantitative analysis of C6-NBD-dihydro-ceramide and C6-NBD-dihydro-galactosylceramide was performed on a Rapid Fire 360 high-throughput mass spectrometry system (Agilent Technologies, Palo Alto, Calif.) coupled with a API4000^+ triple quadrupole mass spectrometer (Applied Biosystems, Concord, Ontario, Canada). RapidFire software packages, including RapidFire Control panel, RapidFire UI and RapidFire Integrator (Agilent Technologies), were used to control the RapidFire instrument and to process data. Analyst 1.6.2 software packages (Applied Biosystems) were used to control the MS system and acquire MS data. […] of sample was loaded on a micro-scale C4 solid-phase extraction (SPE) cartridge (Agilent Technologies) and salts were removed using water supplemented with 0.1% formic acid at the flow rate of 1.5 mL/min for 3 sec. C6-NBD-dihydro-ceramide and C6-NBD-dihydro-galactosylceramide were co-eluted into the mass spectrometer using acetonitrile containing 0.1% formic acid at the flow rate of 1.0 mL/min for 3 sec. The total cycle time of one injection was 8 secs. The MS/MS detection was performed in ESI negative mode. The mass transition of C6-NBD-dihydro-galactosylceramide was m/z 752.6→678.6 using a −40 V collision energy, the mass transition of C6-NBD-dihydro-ceramide was m/z 590.6→115.8 using a −40 V collision energy and the mass transition of N-docdecanoyl-NBD-galactosylceramide was m/z 820.9→746.3 using a −45 V collision energy.
The C6-NBD-dihydro-galactosylceramide reading was normalized first by dividing the peak area of C6-NBD-dihydro-galactosylceramide by the peak area of the internal standard, N-docdecanoyl-NBD-galactosylceramide. IC50 values (see Table 1, where data ranges with one asterix (*) correspond to analysis using the RapidFire/MS/MS method, and data ranges with two asterixes (**) correspond to analysis using the RapidFire/MS/MS method with 0.01% Tween added) were generated from sigmoidal dose-response curves (variable slope) with GraphPad Prism software (GraphPad Software, Inc., San Diego, Calif.) using the normalized peak areas of C6-NBD-dihydro-galactosylceramide or the percent inhibition of C6-NBD-dihydro-galactosylceramide accumulation relative to DMSO control. […]
In general, IC50 refers to the point on the concentration scale where inhibition reaches its midpoint. A lower IC50 goes with inhibition by little substance. Take `N[C@@H]1CCN(C(=O)[C@H](NS(=O)(=O)c2ccc3cc(OC4CCCC4)ccc3c2)C(F)(F)c2ccc(-c3ccc(Cl)cc3)cc2)C1` [Compound 149-2, N—((S)-3-((R)-3-aminopyrrolidin-1-yl)-1-(4′-chloro-[1,1′-biphenyl]-4-yl)-1,1-difluoro-3-oxopropan-2-yl)-6-(cyclopentyloxy) naphthalene-2-sulfonamide trifluoroacetate]: the IC50 is 1 to 10 µM. Regarding `N[C@H]1[C@@H]2CC[C@H]1CN(C(=O)[C@@H](NS(=O)(=O)c1ccc3cc(OC4CCCC4)ccc3c1)C(F)(F)c1ccc(Cl)cc1)C2` [Compound 150-1, N—((R)-3-((1R,5S,8R)-8-amino-3-azabicyclo[3.2.1]octan-3-yl)-1-(4-chlorophenyl)-1,1-difluoro-3-oxopropan-2-yl)-6-(cyclopentyloxy)naphthalene-2-sulfonamide trifluoroacetate], the IC50 is below 1 µM. Take `N[C@H]1[C@@H]2CC[C@H]1CN(C(=O)[C@H](NS(=O)(=O)c1ccc3cc(OC4CCCC4)ccc3c1)C(F)(F)c1ccc(Cl)cc1)C2` [Compound 150-2, N—((S)-3-((1R,5S,8S)-8-amino-3-azabicyclo[3.2.1]octan-3-yl)-1-(4-chlorophenyl)-1,1-difluoro-3-oxopropan-2-yl)-6-(cyclopentyloxy)naphthalene-2-sulfonamide trifluoroacetate]: the IC50 is 1 to 10 µM. Compound `O=C([C@@H](NS(=O)(=O)c1ccc(OCC2CCCCC2)cc1)C(F)(F)c1ccc(-c2ccc(Cl)cc2)cc1)N1CCNCC1` [Compound 151-1, (R)—N-(1-(4′-chloro-[1,1′-biphenyl]-4-yl)-1,1-difluoro-3-oxo-3-(piperazin-1-yl)propan-2-yl)-4-(cyclohexylmethoxy)benzenesulfonamide trifluoroacetate] yielded an IC50 of 1 to 10 µM. In turn, `O=C([C@H](NS(=O)(=O)c1ccc(OCC2CCCCC2)cc1)C(F)(F)c1ccc(-c2ccc(Cl)cc2)cc1)N1CCNCC1` [Compound 151-2, (S)—N-(1-(4′-chloro-[1,1′-biphenyl]-4-yl)-1,1-difluoro-3-oxo-3-(piperazin-1-yl)propan-2-yl)-4-(cyclohexylmethoxy) benzenesulfonamide trifluoroacetate] came in with an IC50 of 30 to 100 µM. As for `NC1CC2CCC(C1)N2C(=O)[C@@H](NC(=O)[C@H](O)c1ccc(OCC2CCCCC2)cc1)C(F)(F)c1ccc(-c2ccc(Cl)cc2)cc1` (stereo partly drawn) [Compound 152-1, (2R)—N-((2R)-3-(3-amino-8-azabicyclo[3.2.1]octan-8-yl)-1-(4′-chloro-[1,1′-biphenyl]-4-yl)-1,1-difluoro-3-oxopropan-2-yl)-2-(4-(cyclohexylmethoxy)phenyl)-2-hydroxyacetamide trifluoroacetate], the figure is 1 to 10 µM; as for `NC1CC2CCC(C1)N2C(=O)[C@H](NC(=O)[C@@H](O)c1ccc(OCC2CCCCC2)cc1)C(F)(F)c1ccc(-c2ccc(Cl)cc2)cc1` (stereo partly drawn) [Compound 152-2, (2S)—N-((2S)-3-(3-amino-8-azabicyclo[3.2.1]octan-8-yl)-1-(4′-chloro-[1,1′-biphenyl]-4-yl)-1,1-difluoro-3-oxopropan-2-yl)-2-(4-(cyclohexylmethoxy)phenyl)-2-hydroxyacetamide trifluoroacetate], 30 to 100 µM.

`NC1CC2CCC(C1)N2C(=O)[C@@H](NC(=O)[C@@H](O)c1ccc(OCC2CCCCC2)cc1)C(F)(F)c1ccc(-c2ccc(Cl)cc2)cc1` (stereo partly drawn) [Compound 152-3, (2S)—N-((2R)-3-(3-amino-8-azabicyclo[3.2.1]octan-8-yl)-1-(4′-chloro-[1,1′-biphenyl]-4-yl)-1,1-difluoro-3-oxopropan-2-yl)-2-(4-(cyclohexylmethoxy)phenyl)-2-hydroxyacetamide trifluoroacetate] registered an IC50 of 1 to 10 µM. As for `NC1CC2CCC(C1)N2C(=O)[C@H](NC(=O)[C@H](O)c1ccc(OCC2CCCCC2)cc1)C(F)(F)c1ccc(-c2ccc(Cl)cc2)cc1` (stereo partly drawn) [Compound 152-4, (2R)—N-((2S)-3-(3-amino-8-azabicyclo[3.2.1]octan-8-yl)-1-(4′-chloro-[1,1′-biphenyl]-4-yl)-1,1-difluoro-3-oxopropan-2-yl)-2-(4-(cyclohexylmethoxy)phenyl)-2-hydroxyacetamide trifluoroacetate], the figure is 30 to 100 µM; as for `CCOc1cc(-c2ccc(C(F)(F)[C@H](NS(=O)(=O)c3ccc(OCC4CCCCC4)cc3)C(=O)N3CCC(N)CC3)cc2)ccc1Cl` [Compound 153-1, (R)—N-(3-(4-aminopiperidin-1-yl)-1-(4′-chloro-3′-ethoxy-[1,1′-biphenyl]-4-yl)-1,1-difluoro-3-oxopropan-2-yl)-4-(cyclohexylmethoxy)benzenesulfonamide trifluoroacetate], 1 to 10 µM.

Regarding `CCOc1cc(-c2ccc(C(F)(F)[C@@H](NS(=O)(=O)c3ccc(OCC4CCCCC4)cc3)C(=O)N3CCC(N)CC3)cc2)ccc1Cl` [Compound 153-2, (S)—N-(3-(4-aminopiperidin-1-yl)-1-(4′-chloro-3′-ethoxy-[1,1′-biphenyl]-4-yl)-1,1-difluoro-3-oxopropan-2-yl)-4-(cyclohexylmethoxy) benzenesulfonamide trifluoroacetate], the IC50 is 30 to 100 µM. The compound `CCOc1cc(-c2ccc(C(F)(F)[C@H](NS(=O)(=O)c3ccc4cc(OC5CCCC5)ccc4c3)C(=O)N3CCC(N)CC3)cc2)ccc1Cl` [Compound 154-1, (R)—N-(3-(4-aminopiperidin-1-yl)-1-(4′-chloro-3′-ethoxy-[1,1′-biphenyl]-4-yl)-1,1-difluoro-3-oxopropan-2-yl)-6-(cyclopentyloxy)naphthalene-2-sulfonamide trifluoroacetate] registered an IC50 of 1 to 10 µM. In turn, `CCOc1cc(-c2ccc(C(F)(F)[C@@H](NS(=O)(=O)c3ccc4cc(OC5CCCC5)ccc4c3)C(=O)N3CCC(N)CC3)cc2)ccc1Cl` [Compound 154-2, (S)—N-(3-(4-aminopiperidin-1-yl)-1-(4′-chloro-3′-ethoxy-[1,1′-biphenyl]-4-yl)-1,1-difluoro-3-oxopropan-2-yl)-6-(cyclopentyloxy)naphthalene-2-sulfonamide trifluoroacetate] showed an IC50 of 1 to 10 µM.

`N[C@@H]1CCN(C(=O)[C@@H](NS(=O)(=O)c2ccc(OCC3CCCCC3)cc2)C(F)(F)c2ccc(-c3ccc(Cl)cc3)cc2)C1` [Compound 155-1, N—((R)-3-((R)-3-aminopyrrolidin-1-yl)-1-(4′-chloro-[1,1′-biphenyl]-4-yl)-1,1-difluoro-3-oxopropan-2-yl)-4-(cyclohexylmethoxy)benzenesulfonamide trifluoroacetate] yielded an IC50 below 1 µM.
